Assay results as given in patent publication US20220259235A1, “EGFR Inhibitor, Composition, and Preparation Method Therefor” (BETTA PHARMACEUTICALS CO., LTD, priority 2019, published 2022).

Tests used:
EGFR Δ19del/T790M/C797S = EGFR Δ19del/T790M/C797S (Homo sapiens, UniProt P00533, T790M/C797S, form not given); assay: EGFR Δ19del/T790M/C797S kinase test (mobility shift, Caliper EZ Reader); assay type: biochemical; settings: kinase enzymatic activity
Method: Mobility variation analysis was performed to determine the affinity of the compound for EGFRΔ19del/T790M/C797S. The enzymatic reaction scheme is as follows:
1. Prepare 1* kinase buffer as follows:
2. Preparation of compound concentration gradient: The test compound was tested with an initial concentration of 3000 nM or 100 nM, diluted in a 384 source plate to a 100% DMSO solution with 100-fold final concentration, and the compound is 3-fold diluted with Precision to 10 concentrations. A dispenser Echo 550 was used to transfer 250 nL 100-fold final concentration of the compound to the target plate OptiPlate-384F.
3. Prepare 2.5-fold final concentration of kinase solution with 1×Kinase buffer;
4. Add 10 μL of 2.5-fold final concentration of kinase solution to the compound well and the positive control well; add 10 μL of 1×Kinase buffer to the negative control well.
5. Centrifuge at 1000 rpm for 30 seconds, shake the reaction plate for well mixation, and then incubate at room temperature for 10 minutes.
6. Prepare a mixture of ATP and Kinase substrate at 5/3-fold final concentration with 1×Kinase buffer.
7. Add 15 μL mixture of 5/3-fold final concentration of ATP and substrate to start reaction.
8. Centrifuge the 384-well plate at 1000 rpm for 30 seconds, shake it well and then incubate it at room temperature for corresponding time.
9. Add 30 μL of stop detection solution to stop the kinase reaction, centrifuge at 1000 rpm for 30 seconds, shake it well.
10. Read conversion rate with Caliper EZ Reader.
% Inhibition=((Conversion%_max−Conversion%_sample)/(Conversion%_max−Conversion%_min))*100
Wherein: Conversion%_sample is the sample conversion rate reading; Conversion%_min: Mean value of negative control wells, representing the conversion rate reading of wells without enzymatic activity; Conversion%_max: Mean value of positive control wells, representing the conversion rate reading of wells without compound inhibition.
The dose-effect curve was fitted with concentration log value as X-axis and percentage inhibition rate as Y-axis. Log (inhibitor) vs. Response—Variable Slope of GraphPad Prism 5 was used to fit the dose-effect curve to obtain IC50 value of enzymatic activity for each compound.
The calculation formula is as Y=Bottom (Top−Bottom)/(1+10^((LogIC50−X)*HillSlope)).
As illustrated in examples, IC50 value is within the following range for the compound of the present invention: “A” represents “IC50≤1nM”; “B” represents “1 nM<IC50≤100nM”.

Ba/F3-L858R/T790M/C797S = Ba/F3-L858R/T790M/C797S (Homo sapiens, UniProt P00533, T790M/C797S/L858R, cells depend on it); assay: Ba/F3-L858R/T790M/C797S cell proliferation assay (CellTiter Glo, 72 h); assay type: cell-based; settings: CTG, numeric values, read-out: BaF3 L858R/T790M/C797S IC50
Method: (§1) Cell line: Ba/F3 cells with stable overexpression of Δ19del/T790M/C797S or L858R/T790M/C797S mutant genes, named Ba/F3-Δ19del/T790M/C797S and Ba/F3-L858R/T790M/C797S, and A431 EGFR wild-type cell line.
(§2) RPMI 1640 and 10% FBS and 1% PS; _EM, 10% PBS and 1% PS
(§3) a) Dilute the test compound (20 mM stock solution) to 10 mM with 100% DMSO as the starting concentration, and then serially dilute 3 times with a “9+0” concentration in 96-well dilution plate (Cat #P-05525, Labcyte);
(§4) b) Dilute compound solution thereof to 1:100 in medium to prepare 10-fold working solution;
(§5) a) Centrifuge the growth cells in logarithmic phase at 1000 rpm for 5 minutes, resuspend the cells in culture medium, and then count the cells;
(§6) b) Inoculate the cells into a 96-well cell culture plate with a density of 2000 cells/well;
(§7) a) The compound prepared in Step 2 was added to a cell plate with 15 μL per well at final concentrations of 1000, 333, 111.1, 37, 12.3, 4.1, 1.4, 0.5, 0.2, and 0 nM. The final concentration of DMSO was 0.1%. The blank control well is with medium (0.1% DMSO).
(§8) b) Incubate cells in an incubatorother 72 hours;
(§9) a) Take out the 96-well cell culture plate and add 50 μl CTG reagent (CellTiter Glo kit, promega, Cat #G7573);
(§10) b) Shake the plate for 2 minutes and let cool at room temperature for 10 minutes,
(§11) c) Read luminous signal value with Perkin Elmer reader.
(§12) Analysis of Experimental Data
(§13) The data were analyzed by GraphPad Prism 6.0 software to obtain the fitting curve of compound activity.
(§14) Fining compound IC50 from nonlinear regression equation:
(§15) Y=Min+(Max−Min)/(1+10^((LogIC50−X)*slope));
(§16) X: Logarithm of compound concentration; Y: luminous signal
(§17) As illustrated in examples, IC50 value is within the following range for the compound of the present invention: “A” represents “IC50≤50 nM”; “B” represents “50 nM<IC50<100 nM”.

Ba/F3-Δ19del/T790M/C797S = Ba/F3-Δ19del/T790M/C797S (Homo sapiens, UniProt P00533, T790M/C797S, cells depend on it, form not given); assay: Ba/F3-Δ19del/T790M/C797S cell proliferation assay (CellTiter Glo, 72 h); assay type: cell-based; settings: CTG, numeric values, read-out: BaF3 Δ19del/T790M/C797S IC50
Method: as §1, §2, §3, §4, §5, §6, §7, §8, §9, §10, §11, §12, §13, §14, §15, §16, §17

[1] = system: A431 EGFR wild-type cell line; assay: A431 EGFR wild-type cell proliferation assay (CellTiter Glo, 72 h); assay type: cell-based; settings: Homo sapiens, A-431, CTG, read-out: A431 EGFR WT IC50
Method: as §1, §2, §3, §4, §5, §6, §7, §8, §9, §10, §11, §12, §13, §14, §15, §16, §17

[2] = Liver microsomal clearance test, human; assay type: in vitro ADME; settings: Human liver microsomes, 0.5 mg/mL, NADPH
Method: (§18) Test 3 Liver Microsomal Clearance Test
(§19) 1. Prepare 0.5 mg/mL liver microsome diluent containing K-butter and MgCl2:
(§20) 2.1 Take 356 μL of the liver microsome diluent prepared above and add it to the preset wells of the incubation plate, the number of multiple wells n=1, mark it as the incubation plate.
(§21) 2.2 Take 4 μL of the positive control compound Verapamil (50 μM) and the working solution of the test compound (200 μM) into the above incubation plate containing 356 μL of liver microsome diluent, and mix well (The dilution solvent from the stock solution to the working solution is a mixed solvent of acetonitrile: methanol: water=1:1:2, and the final concentration of DMSO is ≤0.5%),
(§22) 2.3 Place the incubation plate in a 37° C. thermostatic oscillator (at shaking speed of 100 rpm) for pre-incubation with 10 min.
(§23) 2.4 Add 40 μL of 10 mM NADPH (add 40 μL of K-buffer to the wells without NADPH) to each reaction well to start the reaction and start timing.
(§24) 3. Sample collection and treatment:
(§25) 3.1 After adding NADPH to start the reaction, immediately take out 50 μL of the sample and add it to the precipitation plate pre-added with 400 μL of stop solution, and shake on an oscillator at 600 rpm for 5 min at room temperature as a 0 min sample.
(§26) 3.2 At the predetermined time points of 5 min, 15 min and 45 min, take out 50 μL of sample from the incubation plate and add it to the precipitation plate. The subsequent steps were the same as the treatment of 0 min sample. 3.3 After balancing, centrifuge above precipitation plate at 3200 rpm for 10 min at 4° C.
(§27) 3.4 Take 50 μL of the supernatant after centrifugation and add it to pre-added 20% acetonitrile water at appropriate proportion, shake on an oscillator at 600 rpm for 2 min at room temperature, mix well, and put it into the LC-MS/MS sampler for sample injection.
as §12
1. […]

[3] = Liver microsomal clearance test, monkey; assay type: in vitro ADME; settings: Monkey liver microsomes, 0.5 mg/mL, NADPH
Method: as §18, §19, §20, §21, §22, §23, §24, §25, §26, §27, §12
1. […]

[4] = Liver microsomal clearance test, dog; assay type: in vitro ADME; settings: Dog liver microsomes, 0.5 mg/mL, NADPH
Method: as §18, §19, §20, §21, §22, §23, §24, §25, §26, §27, §12
1. […]

[5] = Liver microsomal clearance test, rat; assay type: in vitro ADME; settings: Rat liver microsomes, 0.5 mg/mL, NADPH
Method: as §18, §19, §20, §21, §22, §23, §24, §25, §26, §27, §12
1. […]

[6] = Liver microsomal clearance test, mice; assay type: in vitro ADME; settings: Mice liver microsomes, 0.5 mg/mL, NADPH
Method: as §18, §19, §20, §21, §22, §23, §24, §25, §26, §27, §12
1. […]

Chain of EGFR Δ19del/T790M/C797S (P00533 with tags, fused parts or gaps DEL746-750/T790M/C797S, form open): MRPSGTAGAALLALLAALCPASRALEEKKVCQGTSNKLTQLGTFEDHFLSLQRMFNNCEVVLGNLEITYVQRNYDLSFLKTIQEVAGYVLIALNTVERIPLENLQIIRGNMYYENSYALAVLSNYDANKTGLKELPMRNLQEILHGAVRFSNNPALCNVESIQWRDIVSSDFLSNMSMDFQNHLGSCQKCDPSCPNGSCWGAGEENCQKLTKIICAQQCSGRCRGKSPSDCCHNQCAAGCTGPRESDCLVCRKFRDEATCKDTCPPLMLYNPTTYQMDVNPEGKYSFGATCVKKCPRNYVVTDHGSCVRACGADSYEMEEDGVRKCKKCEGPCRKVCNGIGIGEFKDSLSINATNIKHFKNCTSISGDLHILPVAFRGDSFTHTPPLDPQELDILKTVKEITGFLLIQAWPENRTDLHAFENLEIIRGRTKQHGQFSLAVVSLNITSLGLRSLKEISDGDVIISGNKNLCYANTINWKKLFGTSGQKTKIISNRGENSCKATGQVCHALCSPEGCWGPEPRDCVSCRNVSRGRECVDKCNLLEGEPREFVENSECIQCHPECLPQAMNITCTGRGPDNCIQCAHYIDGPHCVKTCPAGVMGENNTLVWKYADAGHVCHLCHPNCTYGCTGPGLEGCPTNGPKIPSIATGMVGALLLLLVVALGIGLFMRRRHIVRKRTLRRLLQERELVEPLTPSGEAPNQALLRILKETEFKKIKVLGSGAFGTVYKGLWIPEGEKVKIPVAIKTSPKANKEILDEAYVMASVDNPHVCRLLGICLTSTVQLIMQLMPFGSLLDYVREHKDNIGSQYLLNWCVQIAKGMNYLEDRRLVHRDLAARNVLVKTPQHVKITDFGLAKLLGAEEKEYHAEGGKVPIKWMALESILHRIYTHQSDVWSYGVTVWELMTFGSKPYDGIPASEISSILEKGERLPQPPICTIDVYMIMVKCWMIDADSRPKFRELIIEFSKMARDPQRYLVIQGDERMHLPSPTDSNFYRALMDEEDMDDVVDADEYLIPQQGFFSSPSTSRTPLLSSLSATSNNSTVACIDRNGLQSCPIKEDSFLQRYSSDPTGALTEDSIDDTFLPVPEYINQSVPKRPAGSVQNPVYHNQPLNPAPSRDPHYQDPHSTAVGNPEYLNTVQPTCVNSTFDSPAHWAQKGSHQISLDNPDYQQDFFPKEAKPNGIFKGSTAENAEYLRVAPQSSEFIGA
Chain of Ba/F3-Δ19del/T790M/C797S (P00533 with tags, fused parts or gaps DEL746-750/T790M/C797S, form open): as above
Chain of Ba/F3-L858R/T790M/C797S (P00533 whole entry T790M/C797S/L858R): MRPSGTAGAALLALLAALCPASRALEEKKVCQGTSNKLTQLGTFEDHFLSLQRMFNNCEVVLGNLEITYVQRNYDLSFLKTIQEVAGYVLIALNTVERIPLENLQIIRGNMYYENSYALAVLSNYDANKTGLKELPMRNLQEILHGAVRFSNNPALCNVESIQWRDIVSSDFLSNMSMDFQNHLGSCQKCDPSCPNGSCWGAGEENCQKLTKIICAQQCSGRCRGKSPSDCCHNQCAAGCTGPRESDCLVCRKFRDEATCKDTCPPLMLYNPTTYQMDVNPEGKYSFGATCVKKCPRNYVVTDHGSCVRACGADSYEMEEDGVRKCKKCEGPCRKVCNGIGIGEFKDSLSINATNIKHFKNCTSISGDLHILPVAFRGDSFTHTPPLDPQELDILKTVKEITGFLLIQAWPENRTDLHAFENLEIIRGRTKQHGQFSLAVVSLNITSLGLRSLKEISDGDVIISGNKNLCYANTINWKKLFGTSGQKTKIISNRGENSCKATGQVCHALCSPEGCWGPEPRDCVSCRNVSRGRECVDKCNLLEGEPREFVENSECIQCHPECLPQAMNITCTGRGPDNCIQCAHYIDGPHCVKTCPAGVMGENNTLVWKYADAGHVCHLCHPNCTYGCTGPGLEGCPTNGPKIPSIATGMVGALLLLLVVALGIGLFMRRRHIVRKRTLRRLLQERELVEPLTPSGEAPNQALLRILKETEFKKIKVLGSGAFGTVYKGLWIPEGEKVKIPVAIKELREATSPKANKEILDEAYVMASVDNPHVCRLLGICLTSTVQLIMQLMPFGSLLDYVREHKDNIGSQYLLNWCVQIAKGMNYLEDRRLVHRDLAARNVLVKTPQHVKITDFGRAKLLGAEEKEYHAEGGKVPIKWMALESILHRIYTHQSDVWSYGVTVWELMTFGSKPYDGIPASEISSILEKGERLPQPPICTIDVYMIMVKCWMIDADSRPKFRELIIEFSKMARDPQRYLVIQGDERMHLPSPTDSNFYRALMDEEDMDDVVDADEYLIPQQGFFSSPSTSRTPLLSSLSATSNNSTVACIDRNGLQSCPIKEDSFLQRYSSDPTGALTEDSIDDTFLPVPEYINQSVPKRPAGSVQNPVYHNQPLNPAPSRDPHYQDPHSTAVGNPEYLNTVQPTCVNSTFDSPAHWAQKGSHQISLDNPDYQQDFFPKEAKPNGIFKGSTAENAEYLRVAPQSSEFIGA

Structure (SMILES) | IC50 (EGFR Δ19del/T790M/C797S; class symbols) | GI50 (Ba/F3-L858R/T790M/C797S) | GI50 (Ba/F3-Δ19del/T790M/C797S) | IC50 [1] | Instrinsic clearance of liver microsomal protein, CLint [2] | Instrinsic clearance of liver microsomal protein, CLint [3] | Instrinsic clearance of liver microsomal protein, CLint [4] | Instrinsic clearance of liver microsomal protein, CLint [5] | Instrinsic clearance of liver microsomal protein, CLint [6] | IC50 (EGFR Δ19del/T790M/C797S; numeric values)
COc1cc(N2CCC(N3CCN(C)CC3)CC2)c(-c2cnn(C)c2)cc1Nc1ncc(Cl)c(Nc2ccc3nc(C4CC4)ccc3c2P(C)(C)=O)n1 [Compound 28, (6-((5-Chloro-2-((2-methoxy-5-(1-methyl-1H-pyrazol-4-yl)-4-(4-(4-methylpiperazine-1-yl)piperidine-1-yl)phenyl)amino)pyrimidin-4-yl)amino)-2-cyclopropylquinolin-5-yl)dimethylphosphine oxide] | – | 6.6 nM | 1 nM | 201 nM | – | – | – | – | – | 0.31 nM
COc1cc(N2CCOCC2)c(-c2cnn(C)c2)cc1Nc1ncc(Cl)c(Nc2ccc3nccnc3c2P(C)(C)=O)n1 [Compound 9] | – | 16.8 nM | 8 nM | 252 nM | – | – | – | – | – | 0.3 nM
CCn1cc(-c2cc(Nc3ncc(Br)c(Nc4ccc(C)c(C)c4P(C)(C)=O)n3)c(OC)cc2N2CCC(N3CCN(C)CC3)CC2)cn1 [Compound 22, (6-((5-Bromo-2-((5-(1-ethyl-1h-pyrazol-4-yl)-2methoxy-4-(4-(4-methylpiperazine-1-yl)piperidin-1-yl)phenyl)amino)pyrimidine-4-yl)amino)-2,3-dimethylphenyl)dimethylphosphine oxide] | – | 31.1 nM | 24.6 nM | 3260 nM | – | – | – | – | – | 4.2 nM

Other lines, results leading:

IC50 (EGFR Δ19del/T790M/C797S; class symbols) | GI50 (Ba/F3-L858R/T790M/C797S) | GI50 (Ba/F3-Δ19del/T790M/C797S) | IC50 [1] | Instrinsic clearance of liver microsomal protein, CLint [2] | Instrinsic clearance of liver microsomal protein, CLint [3] | Instrinsic clearance of liver microsomal protein, CLint [4] | Instrinsic clearance of liver microsomal protein, CLint [5] | Instrinsic clearance of liver microsomal protein, CLint [6] | IC50 (EGFR Δ19del/T790M/C797S; numeric values) | Structure (SMILES)
≤ 1 nM | 6.5 nM | 3 nM | 114 nM | 15.4 μL/min/mg proteins | 43.2 μL/min/mg proteins | 25.8 μL/min/mg proteins | 0.8 μL/min/mg proteins | 11.2 μL/min/mg proteins | – | COc1cc(N2CCC(N3CCCCC3)CC2)c(-c2cnn(C)c2)cc1Nc1ncc(Cl)c(Nc2ccc3nccnc3c2P(C)(C)=O)n1 [Compound 5, (6-((2-((4-([1,4′-Dipiperidine]-1′-yl)-2-methoxy-5-(1-methyl-1H-pyrazole-4-yl)phenyl)amino)-5-chloropyrimidin-4-yl)amino)quinoxalin-5-yl)dimethylphosphine oxide]
– | 1.3 nM | 1 nM | 135 nM | – | – | – | – | – | 0.3 nM | CCn1cc(-c2cc(Nc3ncc(Br)c(Nc4ccc5nccnc5c4P(C)(C)=O)n3)c(OC)cc2N2CCC(N3CCN(C)CC3)CC2)cn1 [Compound 19]
– | 3.6 nM | 0.7 nM | 465 nM | – | – | – | – | – | 0.3 nM | CCn1cc(-c2cc(Nc3ncc(Br)c(Nc4ccc(C)c(C)c4P(C)(C)=O)n3)c(OC)cc2N2CCOCC2)cn1 [Compound 21]
– | 3.8 nM | 3.5 nM | 120 nM | – | – | – | – | – | 0.3 nM | COc1cc(N2CCC(N3CCN(C)CC3)CC2)c(-c2cnn(C(F)F)c2)cc1Nc1ncc(Br)c(Nc2ccc3nccnc3c2P(C)(C)=O)n1 [Compound 17]
– | 2.8 nM | 4.6 nM | 241 nM | – | – | – | – | – | 0.2 nM | COc1cc(N2CCN(C3CCCC3)CC2)c(-c2cnn(C)c2)cc1Nc1ncc(Br)c(Nc2ccc(C)c(C)c2P(C)(C)=O)n1 [Compound 26, (6-((5-Bromo-2-((4-(4-cyclopentylpiperazine-1-yl)-2-methoxy-5-(1-methyl-1H-pyrazole-4-yl)phenyl)amino)pyrimidin-4-yl)amino)-2,3-dimethylphenyl)dimethylphoshine oxide]
